Assay results from patent publication US20140296265A1, “Method of Treating Lymphoma Using Pyridopyrimidinone Inhibitors of PI3K/mTOR” (Sanofi, priority 2011, published 2014).

What was measured:
[1] = Phase 1 dose-escalation study: safety and tolerability (MTD, adverse events); assay type: in vivo
Protocol: (§1) A Phase I, non-randomized, open-label, dose-escalation study was conducted for Compound A using two dosing schedules to evaluate the safety, PK, and pharmacodynamics of Compound A in subjects with solid tumors or lymphoma.
Patients were treated with a conventional ‘3+3’ dose-escalation design with cohorts of three to six subjects for up to nine different dose levels on each dosing schedule.
(§2) Patients received 5, 10 or 50 mg of Compound A either twice daily (bid) or daily (qd) for 28-day cycles. Pharmacokinetics and pharmacodynamic analyses were performed, and tumor response was assessed every 8 weeks.

[2] = Phase 1 dose-escalation study: plasma pharmacokinetics; assay type: in vivo, human
Protocol: as §1, §2

[3] = system: PI3K and ERK pathway signaling; assay: Phase 1 dose-escalation study: pharmacodynamics in paired tumor biopsies; assay type: in vivo, human
Protocol: as §1, §2

[4] = system: solid tumors or lymphoma; assay: Phase 1 dose-escalation study: tumor response; assay type: in vivo, human
Protocol: as §1, §2

[5] = Phase 1 dose-expansion lymphoma cohort: safety and tolerability; assay type: in vivo, human
Excerpt: The following phase 1 study was designed to evaluate the safety and pharmacokinetics of Compound A administered as a continuous daily dosing regimen in an expansion cohort of subjects with relapsed or refractory lymphoma.
(§3) This was a Phase 1, open-label, non-randomized trial of Compound A given orally as a single agent in subjects with lymphoma. The maximum tolerated dose expansion cohort planned enrollment was at least 15 subjects.
The primary objective was to determine the safety and tolerability of Compound A administered orally, twice daily, as a continuous daily dosing regimen to subjects with relapsed or refractory lymphoma.
(§4) The key eligibility include the following: • Histologically confirmed diagnosis of relapsed or refractory lymphoma • Measureable disease • Adequate bone marrow function defined as: • ANC≧1000/mm3 (chronic lymphocytic leukemia with ANC≧500/mm3) • Platelets≧30,000/mm3 • Hemoglobin≧8 g/dL • Availability of archival or fresh tumor tissue • No prior therapy with a selective PI3K inhibitor • Written informed consent.

[6] = human, in vivo, 50 mg, 27 day
Excerpt: The secondary objectives were to determine (a) the plasma pharmacokinetics of Compound A continuous daily dosing; and (b) the pharmacodynamic effects of Compound A on tumor tissue.

[7] = system: relapsed or refractory lymphoma; assay: Phase 1 dose-expansion lymphoma cohort: best response; assay type: in vivo, human
Excerpt: as §3
The exploratory objectives were to determine (a) the pharmacodynamic effects of Compound A in subjects with lymphoma; (b) the preliminary efficacy data (response rate) for Compound A; and (c) the long-term safety and tolerability of Compound A after repeated twice daily administration.
as §4

[8] = system: PI3K and MAPK pathways; assay: Pharmacodynamic analyses in paired tumor tissue: phospho-markers; assay type: in vivo, human; conditions: for % Decrease p4EBP1T70 / % Decrease pAKTS473 / % Decrease pAKTT308 / % Decrease pERKT202/Y204: Mantle Cell Lymphoma, 50 mg BID, PTEN-def
Protocol: (§5) The secondary objectives were to determine (a) the plasma pharmacokinetics of Compound A continuous daily dosing; and (b) the pharmacodynamic effects of Compound A on tumor tissue. […] This finding is also reflected in FIG. 3, which depicts PTEN IHC and Ki67 IF staining of lymphoma tumor cells treated with Compound A. PTEN expression was evaluated by immunohistochemistry in formalin fixed, paraffin-embedded tissue sections FFPE (5 micron) with anti-PTEN antibody (NCL-PTEN, clone 28H6, diluted 1/300, Novocastra Laboratories Ltd) utilizing standardized procedures. Cryopreserved tumor biopsy samples were serially sectioned at 5 microns and converted in FFPE sections.

[9] = system: mantle cell lymphoma tumor; assay: Pharmacodynamic analyses in paired tumor tissue: Ki67 and TUNEL; assay type: in vivo, human
Protocol: as §5

[10] = paired biopsies of diverse solid tumors, five patients, 50 mg bid
[11] = lymphoma cohort, sixteen subjects
[12] = Diffuse Large B-cell Lymphoma, n 2, twice daily continuous dosing
[13] = Follicular Lymphoma, n 4, twice daily continuous dosing
[14] = Mantle Cell Lymphoma, n 5, twice daily continuous dosing
[15] = Mantle Cell Lymphoma, 50 mg BID, D 56 post dose, PTEN-def

SMILES: CCn1c(=O)c(-c2ccn[nH]2)cc2c(C)nc(N)nc21 [Compound A, 2-amino-8-ethyl-4-methyl-6-(1H-pyrazol-5-yl)pyrido[2,3-d]pyrimidin-7(8H)-one]
- maximum tolerated dose (MTD) ([1]; bid schedule): 50 mg
- most common related adverse events ([1]; in vivo): nausea, diarrhea, anorexia, elevated liver enzymes, skin and subcutaneous disorders, and vomiting
- tolerability ([1]; in vivo): generally well-tolerated
- maximum tolerated dose (MTD) ([1]; qd schedule): 90 mg
- exposure versus dose ([2]; bid and qd schedules): increase with increasing dose
- half-life ([2]; human, plasma, oral, at steady-state, read-out: Mean t1/2,z): 3 to 9 h
- Tmax ([2]; human, plasma, oral, post-dose, read-out: Median tmax): 1 to 3 h
- post-dose reduction in p4EBP1 [3, 10]: 62-80%
- post-dose reduction in pAKT-T308 [3, 10]: 57-71%
- post-dose reduction in pERK [3, 10]: 53-80%
- pharmacodynamic modulation of PI3K and ERK pathway signaling ([3]; tumors and surrogate tissues, repeat-dose administration): Robust pharmacodynamic modulation
- patients on study for ≧16 weeks ([4]; in vivo): Eleven
- patients on treatment for ≧24 weeks ([4]; in vivo): seven
- tumor response ([4]; one patient with mantle cell lymphoma, treated for 12 cycles): one partial response in MCL
- activity in solid tumor patients ([4]; solid tumor patients): prolonged disease stabilization
- ALT increased, All Adverse Events, All Grades ([5]; human, in vivo): 3 (19) n (%)
- ALT increased, All Adverse Events, Grade ≧ 3 ([5]; human, in vivo): 2 (13) n (%)
- ALT increased, Related Adverse Events, All Grades ([5]; human, in vivo): 3 (19) n (%)
- ALT increased, Related Adverse Events, Grade ≧ 3 ([5]; human, in vivo): 2 (13) n (%)
- AST increased, All Adverse Events, All Grades ([5]; human, in vivo): 4 (25) n (%)
- AST increased, All Adverse Events, Grade ≧ 3 ([5]; human, in vivo): 0 n (%)
- AST increased, Related Adverse Events, All Grades ([5]; human, in vivo): 3 (19) n (%)
- AST increased, Related Adverse Events, Grade ≧ 3 ([5]; human, in vivo): 0 n (%)
- Anemia, All Adverse Events, All Grades ([5]; human, in vivo): 3 (19) n (%)
- Anemia, All Adverse Events, Grade ≧ 3 ([5]; human, in vivo): 2 (13) n (%)
- Anemia, Related Adverse Events, All Grades ([5]; human, in vivo): 1 (6) n (%)
- Anemia, Related Adverse Events, Grade ≧ 3 ([5]; human, in vivo): 0 n (%)
- Asthenia, All Adverse Events, All Grades ([5]; human, in vivo): 3 (19) n (%)
- Asthenia, All Adverse Events, Grade ≧ 3 ([5]; human, in vivo): 2 (13) n (%)
- Asthenia, Related Adverse Events, All Grades ([5]; human, in vivo): 0 n (%)
- Asthenia, Related Adverse Events, Grade ≧ 3 ([5]; human, in vivo): 0 n (%)
- Creatinine increased, All Adverse Events, All Grades ([5]; human, in vivo): 3 (19) n (%)
- Creatinine increased, All Adverse Events, Grade ≧ 3 ([5]; human, in vivo): 0 n (%)
- Creatinine increased, Related Adverse Events, All Grades ([5]; human, in vivo): 0 n (%)
- Creatinine increased, Related Adverse Events, Grade ≧ 3 ([5]; human, in vivo): 0 n (%)
- Diarrhea, All Adverse Events, All Grades ([5]; human, in vivo): 6 (38) n (%)
- Diarrhea, All Adverse Events, Grade ≧ 3 ([5]; human, in vivo): 0 n (%)
- Diarrhea, Related Adverse Events, All Grades ([5]; human, in vivo): 3 (19) n (%)
- Diarrhea, Related Adverse Events, Grade ≧ 3 ([5]; human, in vivo): 0 n (%)
- Discontinuations of treatment: Adverse event ([5]; human, in vivo): 2 (13) n (%)
- Dose modification due to treatment-related toxicities: AST/ALT increase ([5]; human, in vivo): 2 (40) n (%)
- Dose modification due to treatment-related toxicities: Amylase increase ([5]; human, in vivo): 1 (20) n (%)
- Dose modification due to treatment-related toxicities: Nausea ([5]; human, in vivo): 2 (40) n (%)
- Fatigue, All Adverse Events, All Grades ([5]; human, in vivo): 3 (19) n (%)
- Fatigue, All Adverse Events, Grade ≧ 3 ([5]; human, in vivo): 1 (6) n (%)
- Fatigue, Related Adverse Events, All Grades ([5]; human, in vivo): 1 (6) n (%)
- Fatigue, Related Adverse Events, Grade ≧ 3 ([5]; human, in vivo): 0 n (%)
- Hyperglycemia, All Adverse Events, All Grades ([5]; human, in vivo): 3 (19) n (%)
- Hyperglycemia, All Adverse Events, Grade ≧ 3 ([5]; human, in vivo): 0 n (%)
- Hyperglycemia, Related Adverse Events, All Grades ([5]; human, in vivo): 1 (6) n (%)
- Hyperglycemia, Related Adverse Events, Grade ≧ 3 ([5]; human, in vivo): 0 n (%)
- Nausea, All Adverse Events, All Grades ([5]; human, in vivo): 5 (31) n (%)
- Nausea, All Adverse Events, Grade ≧ 3 ([5]; human, in vivo): 0 n (%)
- Nausea, Related Adverse Events, All Grades ([5]; human, in vivo): 5 (31) n (%)
- Nausea, Related Adverse Events, Grade ≧ 3 ([5]; human, in vivo): 0 n (%)
- Patients requiring dose modification due to toxicity ([5]; human, in vivo): 12 (75) n (%)
- Patients requiring dose modification due to treatment-related toxicities ([5]; human, in vivo): 5 (31) n (%)
- Pyrexia, All Adverse Events, All Grades ([5]; human, in vivo): 4 (25) n (%)
- Pyrexia, All Adverse Events, Grade ≧ 3 ([5]; human, in vivo): 0 n (%)
- Pyrexia, Related Adverse Events, All Grades ([5]; human, in vivo): 0 n (%)
- Pyrexia, Related Adverse Events, Grade ≧ 3 ([5]; human, in vivo): 0 n (%)
- Discontinuations of treatment ([5]; in vivo): 14 (88) n (%)
- tolerability ([5]; in vivo): well tolerated
- Discontinuations of treatment: Death (unrelated to study drug) [5, 11]: 1 (6) n (%)
- Discontinuations of treatment: Progressive disease [5, 11]: 8 (50) n (%)
- accumulation (AUCtau) on day 27 [6]: approximately 3 fold
- Best Response: subjects with Partial Response [7, 12]: 1
- Best Response: subjects with Progressive Disease [7, 12]: 1
- Best Response: subjects with Progressive Disease [7, 13]: 1
- Best Response: subjects with Stable Disease [7, 13]: 3
- Best Response: subjects with Stable Disease ([7]; Hodgkin's Lymphoma, n 1, twice daily continuous dosing): 1
- Best Response: subjects with Partial Response [7, 14]: 1^b
- Best Response: subjects with Progressive Disease [7, 14]: 1
- Best Response: subjects with Stable Disease [7, 14]: 3 c
- Best Response: subjects with Partial Response ([7]; Transformed Lymphoma, n 1, twice daily continuous dosing): 1 days
- % Decrease p4EBP1T70 ([8]; D 27 post dose): 60%
- % Decrease pAKTS473 ([8]; D 27 post dose): 70%
- % Decrease pAKTT308 ([8]; D 27 post dose): 65%
- % Decrease pERKT202/Y204 ([8]; D 27 post dose): 15%
- % Decrease p4EBP1T70 ([8]; D 56 post dose): 60%
- % Decrease pAKTS473 ([8]; D 56 post dose): 73%
- % Decrease pAKTT308 ([8]; D 56 post dose): 88%
- % Decrease pERKT202/Y204 ([8]; D 56 post dose): 74%
- inhibition of the PI3K and MAPK pathways ([8]; mantle cell lymphoma tumor): robust inhibition of the PI3K and MAPK pathways
- % Decrease Ki67 ([9]; Mantle Cell Lymphoma, 50 mg BID, D 27 post dose, PTEN-def): 98%
- % Decrease Ki67 [9, 15]: 99%
- TUNEL (fold increase) [9, 15]: 1.5 fold
- inhibition of Ki67 proliferation ([9]; mantle cell lymphoma tumor): near complete inhibition of Ki67 proliferation
